Measurements published in ChEMBL document CHEMBL1201862, “PubChem BioAssay data set” (2004).
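Interpolation was linear, between the two tested concentrations surrounding the appropriate level; five concentrations were tested over 48 hours in 96-well plates. GI50: concentration for 50% inhibition of growth.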 Calls of active or inactive are those of the source. Rule as the data show it: active = GI50 up to about 1.1 µM and inactive = higher.

How the values were obtained:
Experiment in all cases: inhibition of tumour cell growth, NCI panel, 48 h
786-0 = system: 786-0
A498 = system: A498
A549 = system: A549
ACHN = system: ACHN
BT-549 = system: BT-549
CAKI-1 = system: CAKI-1
CCRF-CEM = system: CCRF-CEM
COLO 205 = system: COLO 205
DU-145 = system: DU-145
EKVX = system: EKVX
HCC 2998 = system: HCC 2998
HCT-116 = system: HCT-116
HCT-15 = system: HCT-15
HL-60 = system: HL-60
HOP-62 = system: HOP-62
HOP-92 = system: HOP-92
HT-29 = system: HT-29
Hs-578T = system: Hs-578T
IGROV-1 = system: IGROV-1
K562 = system: K562
KM12 = system: KM12
LOX IMVI = system: LOX IMVI
M14 = system: M14
MCF7 = system: MCF7
MDA-MB-231 = system: MDA-MB-231
MDA-N = system: MDA-N
MOLT-4 = system: MOLT-4
Malme-3M = system: Malme-3M
NCI-H226 = system: NCI-H226
NCI-H23 = system: NCI-H23
NCI-H460 = system: NCI-H460
NCI/ADR-RES = system: NCI/ADR-RES
OVCAR-3 = system: OVCAR-3
OVCAR-4 = system: OVCAR-4
OVCAR-5 = system: OVCAR-5
OVCAR-8 = system: OVCAR-8
PC-3 = system: PC-3
RPMI-8226 = system: RPMI-8226
RXF 393 = system: RXF 393
SF-268 = system: SF-268
SF-295 = system: SF-295
SF-539 = system: SF-539
SK-MEL-28 = system: SK-MEL-28
SK-MEL-2 = system: SK-MEL-2
SK-MEL-5 = system: SK-MEL-5
SK-OV-3 = system: SK-OV-3
SN12C = system: SN12C
SNB-19 = system: SNB-19
SNB-75 = system: SNB-75
SR = system: SR
SW-620 = system: SW-620
T47D = system: T47D
TK-10 = system: TK-10
U-251 = system: U-251
UACC-257 = system: UACC-257
UACC-62 = system: UACC-62
UO-31 = system: UO-31
MDA-MB-435 = system: MDA-MB-435
NCI-H522 = system: NCI-H522

With `CC(C)/C(Cl)=N\OC(=O)Nc1ccc(F)cc1F` the GI50 (786-0) was 3.9 µM (inactive), the GI50 (A498) was 17 µM (inactive) and the GI50 (A549) was 18.4 µM (inactive). For the same compound, the GI50 (ACHN) was 3.36 µM (inactive), the GI50 (BT-549) was 13 µM (inactive) and the GI50 (CAKI-1) was 19.3 µM (inactive). The GI50 (CCRF-CEM) was 0.836 µM (active), the GI50 (COLO 205) was 1.87 µM (inactive) and the GI50 (DU-145) was 17.8 µM (inactive). The GI50 (EKVX) was 6.53 µM (inactive), the GI50 (HCC 2998) was 18.3 µM (inactive) and the GI50 (HCT-116) was 3.78 µM (inactive). For the same compound, the GI50 (HCT-15) was 7.67 µM, the GI50 (HL-60) was 0.486 µM (active) and the GI50 (HOP-62) was 17.6 µM (inactive). For the same compound, the GI50 (HOP-92) was 1.82 µM (inactive), the GI50 (HT-29) was 3.82 µM (inactive) and the GI50 (Hs-578T) was 23.3 µM (inactive). For the same compound, the GI50 (IGROV-1) was 16 µM (inactive), the GI50 (K562) was 1.26 µM (inactive) and the GI50 (KM12) was 17.7 µM (inactive). The GI50 (LOX IMVI) was 1.66 µM (inactive), the GI50 (M14) was 2.98 µM (inactive) and the GI50 (MCF7) was 3.43 µM (inactive). For the same compound, the GI50 (MDA-MB-231) was 2.21 µM (inactive), the GI50 (MDA-N) was 9.33 µM (inactive) and the GI50 (MOLT-4) was 1.85 µM (inactive). For the same compound, the GI50 (Malme-3M) was 1.66 µM (inactive), the GI50 (NCI-H226) was 15.8 µM (inactive) and the GI50 (NCI-H23) was 14.3 µM (inactive). The GI50 (NCI-H460) was 20.7 µM (inactive), the GI50 (NCI/ADR-RES) was 7.05 µM (inactive) and the GI50 (OVCAR-3) was 2.68 µM (inactive). The GI50 (OVCAR-4) was 3.76 µM (inactive), the GI50 (OVCAR-5) was 17.4 µM (inactive) and the GI50 (OVCAR-8) was 15.6 µM (inactive). For the same compound, the GI50 (PC-3) was 17.2 µM (inactive), the GI50 (RPMI-8226) was 4.69 µM (inactive) and the GI50 (RXF 393) was 3.72 µM (inactive). The GI50 (SF-268) was 19.5 µM (inactive), the GI50 (SF-295) was 15.1 µM (inactive) and the GI50 (SF-539) was 15.8 µM (inactive). For the same compound, the GI50 (SK-MEL-28) was 11 µM (inactive), the GI50 (SK-MEL-2) was 13.6 µM (inactive) and the GI50 (SK-MEL-5) was 14.3 µM (inactive). For the same compound, the GI50 (SK-OV-3) was 17.1 µM (inactive), the GI50 (SN12C) was 6.78 µM (inactive) and the GI50 (SNB-19) was 19.5 µM (inactive). For the same compound, the GI50 (SNB-75) was 17.3 µM (inactive), the GI50 (SR) was 1.67 µM (inactive) and the GI50 (SW-620) was 1.78 µM (inactive). The GI50 (T47D) was 14.4 µM (inactive), the GI50 (TK-10) was 5.19 µM (inactive) and the GI50 (U-251) was 18 µM (inactive). The GI50 (UACC-257) was 14.1 µM (inactive), the GI50 (UACC-62) was 16.9 µM (inactive) and the GI50 (UO-31) was 7.52 µM (inactive).

With `C[C@]1(S(=O)(=O)c2ccccc2)C[C@H]2N(Cc3ccccc3)[C@@H]1CCC21OCCO1` the GI50 (786-0) was > 100 µM (inactive), the GI50 (A549) was 86.1 µM (inactive) and the GI50 (ACHN) was > 100 µM (inactive). The GI50 (BT-549) was > 100 µM (inactive), the GI50 (CAKI-1) was > 100 µM (inactive) and the GI50 (CCRF-CEM) was 49.1 µM (inactive). For the same compound, the GI50 (COLO 205) was 50.5 µM (inactive), the GI50 (DU-145) was > 100 µM (inactive) and the GI50 (EKVX) was > 100 µM (inactive). The GI50 (HCT-116) was > 100 µM (inactive), the GI50 (HCT-15) was 63.1 µM and the GI50 (HL-60) was 13.6 µM (inactive). For the same compound, the GI50 (HOP-62) was > 100 µM (inactive), the GI50 (HOP-92) was 88.1 µM (inactive) and the GI50 (HT-29) was 58.6 µM (inactive). The GI50 (Hs-578T) was > 100 µM (inactive), the GI50 (IGROV-1) was > 100 µM (inactive) and the GI50 (K562) was > 100 µM (inactive). The GI50 (KM12) was 58.2 µM (inactive), the GI50 (LOX IMVI) was > 100 µM (inactive) and the GI50 (M14) was > 100 µM (inactive). For the same compound, the GI50 (MCF7) was 78.9 µM (inactive), the GI50 (MDA-MB-231) was > 100 µM (inactive) and the GI50 (MDA-MB-435) was > 100 µM (inactive). The GI50 (MDA-N) was > 100 µM (inactive), the GI50 (MOLT-4) was 30.8 µM (inactive) and the GI50 (Malme-3M) was > 100 µM (inactive). The GI50 (NCI-H23) was 60.5 µM (inactive), the GI50 (NCI-H460) was 67.9 µM (inactive) and the GI50 (NCI-H522) was 72.6 µM (inactive). For the same compound, the GI50 (NCI/ADR-RES) was 46.9 µM (inactive), the GI50 (OVCAR-3) was > 100 µM (inactive) and the GI50 (OVCAR-4) was 36.3 µM (inactive). For the same compound, the GI50 (OVCAR-5) was > 100 µM (inactive), the GI50 (OVCAR-8) was > 100 µM (inactive) and the GI50 (PC-3) was 70.5 µM (inactive). The GI50 (RXF 393) was > 100 µM (inactive), the GI50 (SF-268) was > 100 µM (inactive) and the GI50 (SF-295) was 90.4 µM (inactive). For the same compound, the GI50 (SK-MEL-28) was > 100 µM (inactive), the GI50 (SK-MEL-2) was > 100 µM (inactive) and the GI50 (SK-MEL-5) was 75.2 µM (inactive). For the same compound, the GI50 (SK-OV-3) was > 100 µM (inactive), the GI50 (SN12C) was > 100 µM (inactive) and the GI50 (SNB-19) was > 100 µM (inactive). For the same compound, the GI50 (SNB-75) was > 100 µM (inactive), the GI50 (SW-620) was 94.6 µM (inactive) and the GI50 (T47D) was 41.6 µM (inactive). The GI50 (U-251) was > 100 µM (inactive), the GI50 (UACC-257) was 22.3 µM (inactive) and the GI50 (UACC-62) was > 100 µM (inactive). For the same compound, the GI50 (UO-31) was > 100 µM (inactive).
